Where two headings read alike, the source gives them in different places. Some results are limits rather than exact numbers.

The IC50 is the concentration that gives 50% inhibition.

Experiment [1] deals with BTK (Homo sapiens (Human), UniProt Q06187). Kind of experiment: In Vitro BTK Kinase Assay: Btk-PolyGAT-LS Assay. The experiment is classed as biochemical. As to conditions: BTK enzyme 0.25 nM, ATP 10 μM, polyGAT 100 nM, 30 minutes incubation, TRF readout; read-out: IC50. The method in brief:
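Human BTK activity was measured with final 10 μM ATP and 100 nM polyGAT substrate in pH 7.5 Tris buffer with 10 mM MgCl2, DTT, Triton X-100 and casein.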

The subject of experiment [2] is CD69 expression on CD19+ B cells in human whole blood stimulated with anti-human IgD. Kind of experiment: In Vitro whole blood CD69 Assay. The experiment is classed as cell-based.
The mark [3] stands for this setting: Homo sapiens, B-cell, human heparinized whole blood, anti-human IgD stimulation overnight, percentage of CD19+ B cells expressing CD69, flow cytometry, read-out: IC50.
Setting [4] is: human heparinized whole blood, anti-human IgD stimulation overnight, percentage of CD19+ B cells expressing CD69, flow cytometry, read-out: IC50.

BTK, sequence (Q06187 whole entry): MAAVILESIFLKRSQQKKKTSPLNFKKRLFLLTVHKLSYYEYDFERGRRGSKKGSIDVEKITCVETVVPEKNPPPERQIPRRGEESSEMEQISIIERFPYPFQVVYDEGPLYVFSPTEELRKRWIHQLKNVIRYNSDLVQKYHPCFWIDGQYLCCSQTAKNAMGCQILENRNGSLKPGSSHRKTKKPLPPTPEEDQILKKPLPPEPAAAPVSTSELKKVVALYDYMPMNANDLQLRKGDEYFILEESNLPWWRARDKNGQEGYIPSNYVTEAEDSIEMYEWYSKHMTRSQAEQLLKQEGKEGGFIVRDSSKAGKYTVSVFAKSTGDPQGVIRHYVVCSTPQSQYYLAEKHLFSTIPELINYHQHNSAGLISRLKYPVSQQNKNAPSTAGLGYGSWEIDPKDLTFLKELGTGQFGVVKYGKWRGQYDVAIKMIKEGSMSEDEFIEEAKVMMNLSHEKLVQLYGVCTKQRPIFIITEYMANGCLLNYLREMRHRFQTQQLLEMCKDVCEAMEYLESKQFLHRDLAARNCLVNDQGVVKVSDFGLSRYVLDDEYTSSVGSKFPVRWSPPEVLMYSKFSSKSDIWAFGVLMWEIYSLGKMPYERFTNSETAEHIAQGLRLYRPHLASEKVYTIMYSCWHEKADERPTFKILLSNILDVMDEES

`C=CC(=O)N1CCC[C@@H](Oc2nc(-c3cnn(C)c3)cn3ncc(C(F)(F)F)c23)CC1` [Example 62, 1-[(4R)-4-[6-(1-methylpyrazol-4-yl)-3-(trifluoromethyl)pyrazolo[1,5-a]pyrazin-4-yl]oxyazepan-1-yl]prop-2-en-1-one]: the half-maximal inhibitory concentration (IC50) in experiment [1] lay in the range of 1 to 10 nM; in experiment [2] (setting [3]), 1000 to 10000 nM.
The matching figures for `C#CC(=O)NC1CCCN(c2nc(-c3cnn(C)c3)cn3nccc23)C1` (centres unmarked) [Example 21, N-[1-[6-(1-methylpyrazol-4-yl)pyrazolo[1,5-a]pyrazin-4-yl]-3-piperidyl]prop-2-ynamide]: 1 to 10 nM and 1000 to 10000 nM.
The matching figures for `C=CC(=O)N(CC(F)F)[C@H]1CC[C@@H](Oc2nc(-c3cnn(C)c3)cn3nccc23)C1` [Example 146, N-(2,2-difluoroethyl)-N-((1S,3R)-3-((6-(1-methyl-1H-pyrazol-4-yl)pyrazolo[1,5-a]pyrazin-4-yl)oxy)cyclopentyl)acrylamide]: below 1 nM and below 1000 nM.
Consider `C=CS(=O)(=O)N1CCC(CNc2nc(-c3cnn(C)c3)cn3nccc23)CC1` [Example 19, 6-(1-methyl-1H-pyrazol-4-yl)-N-((1-(vinylsulfonyl)piperidin-4-yl)methyl)pyrazolo[1,5-a]pyrazin-4-amine], for which the concentration for half-maximal inhibition (IC50) in experiment [1] was below 1 nM; in experiment [2] (setting [3]), below 1000 nM.
Taken in the same sequence, the figures for `C=CC(=O)N1CC[C@@H]2[C@H](Oc3nc(-c4cnn(C)c4)cn4nccc34)C(C)(C)[C@@H]21` [Example 172, 1-((1R,5S,6S)-7,7-dimethyl-6-((6-(1-methyl-1H-pyrazol-4-yl)pyrazolo[1,5-a]pyrazin-4-yl)oxy)-2-azabicyclo[3.2.0]heptan-2-yl)prop-2-en-1-one] were below 1 nM and 1000 to 10000 nM.
In the case of `C=CC(=O)N1CC[C@@]2(CC[C@@H](Oc3nc(-c4cnn(C)c4)cn4nccc34)C2)C1` (single isomer, unassigned) [Example 207], the values for the half-maximal inhibitory concentration (IC50) in experiment [1] and in experiment [2] (setting [3]) were 1 to 10 nM and 1000 to 10000 nM, respectively.
As for `C=CC(=O)N1CC[C@]2(C1)C[C@@](C)(Oc1nc(-c3cnn(C)c3)cn3nccc13)C2` [Example 213, rac-1-((2r,4s)-2-methyl-2-((6-(1-methyl-1H-pyrazol-4-yl)pyrazolo[1,5-a]pyrazin-4-yl)oxy)-6-azaspiro[3.4]octan-6-yl)prop-2-en-1-one], the IC50 in experiment [1] was in the range of 1 to 10 nM; in experiment [2] (setting [4]), 1000 to 10000 nM.
Consider `C=CC(=O)N1CCOC[C@@H](Oc2nc(-c3cnn(C)c3)cn3nccc23)C1` [Example 54, (S)-1-(6-((6-(1-methyl-1H-pyrazol-4-yl)pyrazolo[1,5-a]pyrazin-4-yl)oxy)-1,4-oxazepan-4-yl)prop-2-en-1-one], for which the values for the half-inhibitory concentration (IC50) in experiment [1] and in experiment [2] (setting [3]) were 1 to 10 nM and above 10000 nM, respectively.
Consider `C=CC(=O)N1C[C@H]2C[C@@H](C1)[C@H]2COc1nc(-c2cnn(C)c2)cn2nccc12` [Example 128, 1-((1R,5S,6s)-6-(((6-(1-methyl-1H-pyrazol-4-yl)pyrazolo[1,5-a]pyrazin-4-yl)oxy)methyl)-3-azabicyclo[3.1.1]heptan-3-yl)prop-2-en-1-one], for which the IC50 in experiment [1] was below 1 nM; in experiment [2] (setting [4]), below 1000 nM.
Consider `C=CC(=O)N1CCC[C@H]2[C@@H]1C[C@@]2(C)Oc1nc(-c2cnn(C)c2)cn2nccc12` (single isomer, unassigned) [Example 111], for which the results for the IC50 in experiment [1] and in experiment [2] (setting [3]) were below 1 nM and below 1000 nM, respectively.
Regarding `CC#CC(=O)N(C)[C@@H]1C[C@@H]2C[C@H]1[C@@H](Oc1nc(-c3cnn(C)c3)cn3nccc13)C2` (racemic) [Example 123, N-methyl-N-((1S,2S,4R,6R)-6-((6-(1-methyl-1H-pyrazol-4-yl)pyrazolo[1,5-a]pyrazin-4-yl)oxy)bicyclo[2.2.1]heptan-2-yl)but-2-ynamide and N-methyl-N-((1R,2R,4S,6S)-6-((6-(1-methyl-1H-pyrazol-4-y)pyrazolo[1,5-a]pyrazin-4-yl)oxy)bicyclo[2.2.1]heptan-2-y)but-2-ynamide], the IC50 lay in the range of 1 to 10 nM in experiment [1] and 1000 to 10000 nM in experiment [2] (setting [4]).
For `CN(C)C/C=C/C(=O)N(C)[C@H]1CCC[C@@H](Oc2nc(-c3cnn(C)c3)cn3ncc(F)c23)C1` [Example 93, (E)-4-(dimethylamino)-N-((1S,3R)-3-((3-fluoro-6-(1-methyl-1H-pyrazol-4-yl)pyrazolo[1,5-a]pyrazin-4-yl)oxy)cyclohexyl)-N-methylbut-2-enamide], the IC50 was 1 to 10 nM in experiment [1] and below 1000 nM in experiment [2] (setting [3]).
`C=CS(=O)(=O)N1CCC(Oc2nc(-c3cnn(C)c3)cn3nccc23)CC1` [Example 3, 6-(1-methyl-1H-pyrazol-4-yl)-4-((1-(vinylsulfonyl)piperidin-4-yl)oxy)pyrazolo[1,5-a]pyrazine]: the results for the 50% inhibitory concentration (IC50) in experiment [1] and in experiment [2] (setting [3]) were below 1 nM and above 10000 nM, respectively.
Regarding `C=CC(=O)N(C)[C@H]1C[C@](Oc2nc(-c3cnn(C)c3)cn3nccc23)(C2CC2)C1` [Example 103, N-((1s,3s)-3-cyclopropyl-3-((6-(1-methyl-1H-pyrazol-4-yl)pyrazolo[1,5-a]pyrazin-4-yl)oxy)cyclobutyl)-N-methylacrylamide], the half-maximal inhibitory concentration (IC50) in experiment [1] is 1 to 10 nM; in experiment [2] (setting [4]) it was 1000 to 10000 nM.
For the compound `CC#CC(=O)N[C@H]1CCC[C@@H](Oc2nc(-c3cnn(C)c3)cn3nccc23)C1` [Example 179, N-((1S,3R)-3-((6-(1-methyl-1H-pyrazol-4-yl)pyrazolo[1,5-a]pyrazin-4-yl)oxy)cyclohexyl)but-2-ynamide], the half-maximal inhibitory concentration (IC50) in experiment [1] was below 1 nM; in experiment [2] (setting [3]), below 1000 nM.
Taken in the same sequence, the figures for `CC#CC(=O)N(C)[C@H]1CC[C@H]2C[C@@]2(Oc2nc(-c3cnn(C)c3)cn3nccc23)C1` (single isomer, unassigned) [Example 116] were below 1 nM and below 1000 nM.
Consider `C=CC(=O)N1CC2(Oc3nc(-c4cnn(C)c4)cn4nccc34)CC1(C)C2` [Example 124, 1-(1-methyl-4-((6-(1-methyl-1H-pyrazol-4-yl)pyrazolo[1,5-a]pyrazin-4-yl)oxy)-2-azabicyclo[2.1.1]hexan-2-yl)prop-2-en-1-one], for which the concentration for half-maximal inhibition (IC50) in experiment [1] was in the range of 1 to 10 nM; in experiment [2] (Homo sapiens, B-cell), 1000 to 10000 nM.
On to `C=CC(=O)N[C@H]1C[C@@](C)(Oc2nc(-c3cnn(C)c3)cn3ncc(C4CC4)c23)C1` [Example 166, N-((cis)-3-((3-cyclopropyl-6-(1-methyl-1H-pyrazol-4-yl)pyrazolo[1,5-a]pyrazin-4-yl)oxy)-3-methylcyclobutyl)acrylamide], for which the half-inhibitory concentration (IC50) in experiment [1] is below 1 nM; in experiment [2] (setting [3]), below 1000 nM.
On to `CC#CC(=O)N1CC2(C1)CC(C)(Oc1nc(-c3cnn(C)c3)cn3ncc(F)c13)C2` [Example 86, 1-(6-((3-fluoro-6-(1-methyl-1H-pyrazol-4-yl)pyrazolo[1,5-a]pyrazin-4-yl)oxy)-6-methyl-2-azaspiro[3.3]heptan-2-yl)but-2-yn-1-one], for which the IC50 in experiment [1] was 1 to 10 nM; in experiment [2] (setting [3]) it was below 1000 nM.
Taken in the same sequence, the figures for `C=CC(=O)N1CCCC(Oc2nc(-c3cnn(C)c3)cn3ncnc23)CC1` (centres unmarked) [Example 57, 1-(4-((6-(1-methyl-1H-pyrazol-4-yl)-[1,2,4]triazolo[1,5-a]pyrazin-8-yl)oxy)azepan-1-yl)prop-2-en-1-one] were 1 to 10 nM and 1000 to 10000 nM.
As for `C=CC(=O)N1CCC[C@@H](Oc2cc(-c3cnn(C)c3)cn3nccc23)CC1` [Example 66, 1-[(4R)-4-[6-(1-methylpyrazol-4-yl)pyrazolo[1,5-a]pyridin-4-yl]oxyazepan-1-yl]prop-2-en-1-one], the 50% inhibitory concentration (IC50) in experiment [1] was below 1 nM; in experiment [2] (setting [3]), below 1000 nM.
With `CC#CC(=O)N1CC(C)(C)OC(C)(COc2nc(-c3cnn(C)c3)cn3nccc23)C1` (single isomer, unassigned) [Example 121, 1-(2,2,6-trimethyl-6-(((6-(1-methyl-1H-pyrazol-4-yl)pyrazolo[1,5-a]pyrazin-4-yl)oxy)methyl)morpholino)but-2-yn-1-one], the half-maximal inhibitory concentration (IC50) was 1 to 10 nM in experiment [1] and below 1000 nM in experiment [2] (setting [3]).
Turning to `C=CC(=O)N1CCC[C@H](Oc2nc(-c3ccc(=O)n(C)c3)cn3nccc23)CC1` (single isomer, unassigned) [Example 71 E1], the 50% inhibitory concentration (IC50) in experiment [1] is 1 to 10 nM; in experiment [2] (setting [3]) it was below 1000 nM.
The matching figures for `C=CC(=O)N[C@H]1C[C@@](C)(Oc2nc(-c3cnc(C)s3)cn3nccc23)C1` [Example 186, N-((1s,3s)-3-methyl-3-((6-(2-methylthiazol-5-yl)pyrazolo[1,5-a]pyrazin-4-yl)oxy)cyclobutyl)acrylamide]: below 1 nM and below 1000 nM.
For `C=CC(=O)N(C)[C@H]1C[C@@](Oc2nc(-c3cnn(C)c3)cn3nccc23)(C2CC2)C1` [Example 104, N—((1r,3r)-3-cyclopropyl-3-((6-(1-methyl-1H-pyrazol-4-yl)pyrazolo[1,5-a]pyrazin-4-yl)oxy)cyclobutyl)-N-methylacrylamide], the IC50 in experiment [1] is 10 to 1000 nM; in experiment [2] (setting [4]) it was 1000 to 10000 nM.
As to `C=CC(=O)NC12CCC(Oc3nc(-c4cnn(C)c4)cn4nccc34)(CC1)C2` [Example 125, N-(4-((6-(1-methyl-1H-pyrazol-4-yl)pyrazolo[1,5-a]pyrazin-4-yl)oxy)bicyclo[2.2.1]heptan-1-yl)acrylamide], the values for the IC50 in experiment [1] and in experiment [2] (setting [3]) were 1 to 10 nM and 1000 to 10000 nM, respectively.
Taken in the same sequence, the figures for `C=CC(=O)N1CC(C)(C)OC(C)(COc2nc(-c3cnn(C)c3)cn3nccc23)C1` (single isomer, unassigned) [Example 120, 1-(2,2,6-trimethyl-6-(((6-(1-methyl-1H-pyrazol-4-yl)pyrazolo[1,5-a]pyrazin-4-yl)oxy)methyl)morpholino)prop-2-en-1-one] were below 1 nM and below 1000 nM.
As to `C=CC(=O)N1CCC[C@@H](Nc2nc(-c3cnn(C)c3)cn3nccc23)CC1` (single isomer, unassigned) [Example 160], the IC50 in experiment [1] was below 1 nM; in experiment [2] (setting [3]) it was 1000 to 10000 nM.

The values are drawn from patent publication US20240083900A1, “PYRAZOLO[1,5-A]PYRAZINE DERIVATIVES AS BTK INHIBITORS” (BIOGEN MA INC., priority 2020, published 2024).
